Reference: ChEMBL document CHEMBL1201862, “PubChem BioAssay data set” (2004)
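Exposure lasted 48 hours, with cells grown in 96-well plates and compounds tested at five concentrations. Abbreviation: GI50, concentration required for 50% inhibition of growth.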 Activity calls are given as the source filed them. Cut-off read from the data, not from the text of the source: active = GI50 up to about 1.1 µM and inactive = higher.

Assays:
Assay in all cases: DTP human tumour cell line panel, 48 h
[1] = system: SR
[2] = system: ACHN
[3] = system: CAKI-1
[4] = system: SF-295
[5] = system: SW-620
[6] = system: RPMI-8226
[7] = system: IGROV-1
[8] = system: KM12
[9] = system: UACC-62
[10] = system: LOX IMVI
[11] = system: HCC 2998
[12] = system: HCT-15
[13] = system: EKVX
[14] = system: A549
[15] = system: M19-MEL
[16] = system: SNB-75
[17] = system: DLD-1
[18] = system: T47D
[19] = system: DU-145
[20] = system: MDA-MB-231

COc1ccc2cc1Oc1ccc(cc1)CC1c3c(cc(OC)c4c3Oc3cc5c(cc3O4)CCNC5C2)CCN1C (configuration not stated)
GI50 [1]: 0.698 µM (active) | GI50 [2]: 1.88 µM (inactive) | GI50 [3]: 2.87 µM (inactive) | GI50 [4]: 1.91 µM (inactive) | GI50 [5]: 1.77 µM (inactive) | GI50 [6]: 1.63 µM (inactive) | GI50 [7]: 1.87 µM (inactive) | GI50 [8]: 1.85 µM (inactive) | GI50 [9]: 1.82 µM (inactive) | GI50 [10]: 1.69 µM (inactive) | GI50 [11]: 1.2 µM (inactive) | GI50 [12]: 1.77 µM | GI50 [13]: 1.94 µM (inactive) | GI50 [14]: 2.2 µM (inactive)

O=C(NC(Cc1ccc(Br)cc1)C(=O)O)c1ccc(I)cc1 (configuration not stated)
GI50 [3]: > 100 µM (inactive) | GI50 [4]: > 100 µM (inactive) | GI50 [5]: > 100 µM (inactive) | GI50 [6]: > 68.9 µM (inactive) | GI50 [7]: > 100 µM (inactive) | GI50 [15]: > 100 µM (inactive) | GI50 [8]: > 100 µM (inactive) | GI50 [9]: 71.9 µM (inactive) | GI50 [16]: > 95.7 µM (inactive) | GI50 [10]: > 100 µM (inactive) | GI50 [11]: > 47.4 µM (inactive) | GI50 [17]: > 100 µM (inactive) | GI50 [12]: > 100 µM | GI50 [13]: > 52 µM (inactive) | GI50 [14]: > 100 µM (inactive)

S=P1(Sc2ccccc2)Oc2ccc3ccccc3c2-c2c(ccc3ccccc23)O1
GI50 [3]: > 83.9 µM (inactive) | GI50 [4]: > 100 µM (inactive) | GI50 [5]: > 100 µM (inactive) | GI50 [6]: > 100 µM (inactive) | GI50 [7]: > 100 µM (inactive) | GI50 [15]: > 100 µM (inactive) | GI50 [8]: > 100 µM (inactive) | GI50 [9]: > 100 µM (inactive) | GI50 [16]: > 100 µM (inactive) | GI50 [10]: > 79.6 µM (inactive) | GI50 [11]: > 100 µM (inactive) | GI50 [17]: > 100 µM (inactive) | GI50 [12]: > 80.4 µM | GI50 [13]: > 100 µM (inactive) | GI50 [14]: > 100 µM (inactive)

O=C(CSCC(=O)N/N=C/c1cccc(C(F)(F)F)c1)N/N=C/c1cccc(C(F)(F)F)c1
GI50 [2]: > 100 µM (inactive) | GI50 [3]: > 100 µM (inactive) | GI50 [4]: > 100 µM (inactive) | GI50 [7]: > 100 µM (inactive) | GI50 [18]: > 100 µM (inactive) | GI50 [9]: > 100 µM (inactive) | GI50 [16]: > 100 µM (inactive) | GI50 [10]: > 100 µM (inactive) | GI50 [19]: > 100 µM (inactive) | GI50 [11]: > 100 µM (inactive) | GI50 [12]: > 100 µM | GI50 [13]: > 100 µM (inactive)

Cc1[nH]c(=O)nc(S)c1C(=O)Nc1cccc2cc3ccccc3cc12
GI50 [1]: > 100 µM (inactive) | GI50 [2]: > 100 µM (inactive) | GI50 [3]: > 100 µM (inactive) | GI50 [4]: > 100 µM (inactive) | GI50 [5]: > 100 µM (inactive) | GI50 [6]: > 100 µM (inactive) | GI50 [7]: > 100 µM (inactive) | GI50 [18]: > 100 µM (inactive) | GI50 [8]: > 100 µM (inactive) | GI50 [9]: > 100 µM (inactive) | GI50 [16]: > 100 µM (inactive) | GI50 [10]: > 100 µM (inactive) | GI50 [19]: > 100 µM (inactive) | GI50 [11]: > 100 µM (inactive) | GI50 [12]: > 100 µM | GI50 [13]: > 100 µM (inactive)

Nc1nc2c(c(-c3ccc(F)cc3)n1)COC/C2=C\c1ccc(F)cc1
GI50 [1]: 17 µM (inactive) | GI50 [2]: 55.6 µM (inactive) | GI50 [3]: > 100 µM (inactive) | GI50 [4]: 35.5 µM (inactive) | GI50 [5]: > 100 µM (inactive) | GI50 [6]: 71.6 µM (inactive) | GI50 [7]: 40.6 µM (inactive) | GI50 [8]: 15.7 µM (inactive) | GI50 [9]: 79.4 µM (inactive) | GI50 [16]: 20.5 µM (inactive) | GI50 [19]: > 100 µM (inactive) | GI50 [11]: 30.8 µM (inactive) | GI50 [12]: > 100 µM | GI50 [13]: 18.6 µM (inactive) | GI50 [20]: > 100 µM (inactive)

CCn1nc(C)c2c1C(=O)NC(C)C(=O)N2 (configuration not stated)
GI50 [2]: > 100 µM (inactive) | GI50 [3]: > 100 µM (inactive) | GI50 [4]: > 100 µM (inactive) | GI50 [5]: > 100 µM (inactive) | GI50 [7]: > 100 µM (inactive) | GI50 [8]: > 10 µM (inactive) | GI50 [9]: > 100 µM (inactive) | GI50 [16]: > 100 µM (inactive) | GI50 [19]: > 100 µM (inactive) | GI50 [12]: 15.1 µM | GI50 [13]: > 100 µM (inactive) | GI50 [14]: > 100 µM (inactive)

CC1(O)C2(c3ccccc3)CCC[N+]1(C)CC2 (configuration not stated)
GI50 [3]: > 100 µM (inactive) | GI50 [4]: > 100 µM (inactive) | GI50 [5]: > 100 µM (inactive) | GI50 [6]: > 100 µM (inactive) | GI50 [7]: > 100 µM (inactive) | GI50 [18]: > 100 µM (inactive) | GI50 [8]: > 100 µM (inactive) | GI50 [9]: > 100 µM (inactive) | GI50 [16]: > 100 µM (inactive) | GI50 [10]: > 100 µM (inactive) | GI50 [19]: > 100 µM (inactive) | GI50 [11]: > 100 µM (inactive) | GI50 [12]: > 100 µM | GI50 [20]: > 100 µM (inactive)

COc1cc(C2S/C(=C/c3ccccc3)C(=O)N2c2ccc(NC(C)=O)cc2)cc(OC)c1OC (configuration not stated)
GI50 [1]: 18.9 µM (inactive) | GI50 [2]: 22.7 µM (inactive) | GI50 [3]: 18.8 µM (inactive) | GI50 [4]: 36.6 µM (inactive) | GI50 [18]: 11.6 µM (inactive) | GI50 [8]: 14.1 µM (inactive) | GI50 [9]: 20 µM (inactive) | GI50 [16]: 3.3 µM (inactive) | GI50 [10]: 18.2 µM (inactive) | GI50 [11]: 19.7 µM (inactive) | GI50 [12]: 15 µM | GI50 [13]: 9.71 µM (inactive) | GI50 [14]: 23.8 µM (inactive) | GI50 [20]: 14.2 µM (inactive)
